Reference: patent US8450374B2, “Pan-antagonists for the androgen receptor and androgen receptor mutants associated with anti-androgen withdrawal” (priority 2009, dated 2013)
Numbering of substitutions follows the chain as printed.

Tests used:
[1] = 25 mg/kg/day IP; PLM6 death at 5 days of treatment
From the text: (§1) Prostates were removed from 3 day and 5 day treatment groups, sectioned and stained by H&E and TUNEL.

prostate tissues = experiment: Prostate apoptosis by TUNEL after short-term IP treatment (PLM6, bicalutamide); type: in vivo, Male C57BI/6 mice; details: 25 mg/kg/day IP, mean ± SE
Experimental: FIG. 6. […] Single 20× magnification fields from each of four lobes of mouse prostate glands were counted in each mouse. […] Data are expressed as means±SE. Statistics were determined using two-tailed, paired t-tests assuming data from each lobe was independent.
as §1
PLM6-induced glandular apoptosis was 19.9±2.8 cells per 20× field on day 3 (P=0.0064) that reached 24.63±3 cells per 20× field on day 5 (P=2.59×10^−4) (FIG. 7). Prostates from treated and control mice were isolated, fixed sectioned and stained TUNEL (BrdU). Sections were then evaluated by visible light microscopy and counting.

AR T877A [2] = biological target: T1, AR T877A (Homo sapiens, UniProt P10275, T878A); experiment: Transcription assay (ARE-luciferase reporter) in CV-1 cells, AR T877A; type: cell-based; set-up: expressed in transfected cells; host or cells: CV-1
T1 sequence (P10275 1-920 T878A): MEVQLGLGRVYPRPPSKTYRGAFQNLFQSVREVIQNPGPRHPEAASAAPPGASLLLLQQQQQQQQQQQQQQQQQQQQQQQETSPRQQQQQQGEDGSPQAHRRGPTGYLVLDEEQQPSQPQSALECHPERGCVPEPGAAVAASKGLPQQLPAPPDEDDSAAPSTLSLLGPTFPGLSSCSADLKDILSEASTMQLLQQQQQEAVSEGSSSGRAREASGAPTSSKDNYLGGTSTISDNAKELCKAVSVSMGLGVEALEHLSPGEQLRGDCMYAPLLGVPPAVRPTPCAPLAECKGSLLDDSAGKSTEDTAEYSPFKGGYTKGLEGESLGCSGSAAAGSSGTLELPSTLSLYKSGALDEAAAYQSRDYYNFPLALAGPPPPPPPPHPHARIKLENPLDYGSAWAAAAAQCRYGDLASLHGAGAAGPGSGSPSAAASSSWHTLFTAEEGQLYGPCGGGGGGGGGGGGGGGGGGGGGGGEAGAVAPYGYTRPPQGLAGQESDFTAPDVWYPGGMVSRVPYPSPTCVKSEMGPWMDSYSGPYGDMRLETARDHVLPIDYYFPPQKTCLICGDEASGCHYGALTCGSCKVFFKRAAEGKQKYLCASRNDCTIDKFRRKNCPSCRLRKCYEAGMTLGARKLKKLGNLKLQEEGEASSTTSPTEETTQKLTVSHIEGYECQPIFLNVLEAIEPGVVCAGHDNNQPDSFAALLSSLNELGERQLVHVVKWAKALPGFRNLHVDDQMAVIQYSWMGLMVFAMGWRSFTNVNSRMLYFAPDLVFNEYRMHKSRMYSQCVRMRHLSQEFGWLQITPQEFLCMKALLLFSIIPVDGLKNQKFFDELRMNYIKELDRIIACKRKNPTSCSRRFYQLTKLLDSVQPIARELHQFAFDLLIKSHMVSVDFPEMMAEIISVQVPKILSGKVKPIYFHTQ
Experimental: (§2) Twenty-four hours prior to transfection, CV-1 cells were seeded at a density of 45,000 cells per well in 24-well cell culture plates and grown in phenol red free Dulbecco's Modified Eagle Medium (DMEM) supplemented with 10% cosmic calf serum (COS). ARE-luciferase reporter and Renilla-Luc as the internal standard and a prokaryotic expression vector encoding the wild-type androgen receptor or mutant androgen receptor were transfected with Lipofectamine (Invitrogen) following manufacturer's protocol. Five hours after transfection, media was added containing the appropriate concentrations of ligands. The cells were allowed to incubate for 38 hours before harvesting by passive lysis buffer. Cell extracts were immediately assayed using the Dual Luciferase Assay (Promega) with a Perkin-Elmer Microbeta Luminometer. […] Dose-response data was analyzed by nonlinear regression analysis using GraphPad Prism.

AR T877A [3] = biological target: T1, AR T877A; experiment: Competitive binding assay, [3H]DHT, transfected COS-7 cells, AR T877A; set-up: expressed in transfected cells; host or cells: COS-7; details: 14 nM [3H]-DHT, read-out: Binding affinity (Ki), AR T877A
Experimental: (§3) Twenty-four hours prior to transfection, COS-7 cells were seeded at a density of 70,000 cells per well in 24-well cell culture plates and grown in phenol red free Dulbecco's Modified Eagle Medium (DMEM) supplement with 10% cosmic calf serum (CCS). The cells were transfected with a prokaryotic expression vector encoding the wild-type androgen receptor or mutant androgen receptor using Lipofectamine (Invitrogen) following manufacturer's protocol. […] Cells were washed with PBS and harvested in 2% SDS, 10% glycerol, and 10 mM Tris, pH 6.8, and radioactivity determined by scintillation counting.

AR wt [4] = biological target: T2, AR wt (Homo sapiens, UniProt P10275); experiment: Competitive binding assay, [3H]DHT, transfected COS-7 cells, wild-type AR; set-up: expressed in transfected cells; host or cells: COS-7; details: 8 nM [3H]-DHT, read-out: Binding affinity (Ki), AR wt
T2 sequence (P10275 1-920): T1 sequence (P10275 1-920 T878A) with A878T
Experimental: as §3

AR wt [5] = biological target: T2, AR wt; experiment: Transcription assay (ARE-luciferase reporter) in CV-1 cells, wild-type AR; type: cell-based; set-up: expressed in transfected cells; host or cells: CV-1
Experimental: as §2

AR W741C = biological target: T3, AR W741C (Homo sapiens, UniProt P10275, W742C); experiment: Competitive binding assay, [3H]DHT, transfected COS-7 cells, AR W741C; set-up: expressed in transfected cells; host or cells: COS-7; details: 75 nM [3H]-DHT, read-out: Binding affinity (Ki), AR W741C
T3 sequence (P10275 1-920 W742C): T1 sequence (P10275 1-920 T878A) with W742C, A878T
Experimental: as §3

Row | SMILES | Deaths [1] | Glandular apoptosis, apoptotic cells (prostate tissues; day 3, TUNEL) [cells per 20× field] | Glandular apoptosis, apoptotic cells (prostate tissues; day 5, TUNEL) [cells per 20× field] | IC50 (AR T877A [2]) [µM] | Antagonist efficacy (RLU value at IC50), AR T877A (AR T877A [2]; in competition with 10 nM DHT) | Ki (AR T877A [3]) [µM] | Ki (AR wt [4]) [µM] | IC50 (AR wt [5]) [µM] | Antagonist efficacy (RLU value at IC50), AR wt (AR wt [5]; in competition with 3 nM DHT, normalized to 10 nM DHT in hAR(wt)) | Ki (AR W741C) [µM]
1 | CC(O)(CS(=O)(=O)c1ccc(F)cc1)C(=O)Nc1ccc(C#N)c(C(F)(F)F)c1 (stereo not shown) [Bicalutamide, bicalutamide] | two | 21.04±4.7 | 50.83±8.2 | – | – | – | – | – | – | –
2 | CN(C)CCCOc1ccccc1Cc1ccccc1S(=O)(=O)CC(C)(O)C(=O)Nc1ccc(C#N)c(C(F)(F)F)c1 (stereo not shown) [PAN12] | – | – | – | 4.1 ± 0.7 | (53% ± 5.6%) | 2.6 | 5.8 | 2.4 | (59%) | 16
